“Also recorded” adds a separate entry of the source. Like-named read-outs stand apart in the source and are kept apart here.

By IC50 is commonly meant the concentration that gives 50% inhibition.

Assay [1] concerns A549. Briefly: Cell cycle effects and total cell number (DAPI imaging). The settings on record: for Cell cycle effects: A549; for IC50: Homo sapiens. The format is cell-based, human. The method, then:
Compound 7e was analyzed for effects on various aspects of cell cycle progression in human cancer cells. These studies were carried out using cells derived from lung adenocarcinoma (A549). This follow-up assessment of activity tested compounds used immunofluorescent imaging of phosphorylated Rb protein and the total DNA content of each cell to determine the cell cycle phase. The ability of the test compounds to affect the cell cycle and Rb phosphorylation was tested over a range of concentrations from less than 100 nM to 50 μM.
Fig 5 Dose-dependent changes in cell cycle. Distribution of cells within the cell cycle as well as total cell numbers were quantitated by fluorescent staining of nuclear DNA with DAPI. Phosphorylated Rb protein was detected by indirect immunofluorescence followed by automated image acquisition and analysis. […] All IC50 values are given under one unlabelled substance, with the y-axis title of each plot written in front as the measure.
A549 cells were harvested from a 90% confluent 10 cm dish and diluted in growth medium. An appropriate concentration of cells were prepared to add 5,000 cells in a volume of 100 µL per well in tissue culture treated PerkinElmer optical bottom ViewPlate microplates, then incubated overnight at 37°C. The following day, compound 7e and the positive control, sunitinib, were diluted in DMSO to concentrations 1000-fold above the maximum tested concentration.
Concentrated dosing solutions of twice the final concentration were prepared by dilution of the DMSO stocks 1:500 in growth media. Three-fold dilutions of each dosing medium were then prepared in medium containing 0.2% DMSO to maintain a constant concentration of vehicle throughout the concentration range of each compound. Each of these was added in equal volume (100 µL) to each well on the assay plate, along with the vehicle control. One plate of cells was incubated with the compounds for a further 24 h, and a separate plate was incubated with the compounds for 48 h.
DAPI (1 µg/mL) fluorescent dye was incubated with fixed cells to quantitate double stranded DNA within each cell nucleus to determine cell cycle distribution. DNA content in each cell was determined by total DAPI fluorescent intensity by high throughput image acquisition and analysis. Fluorescent intensities were plotted on histograms with threshold intensity values assigned to each cell cycle classification using the MetaXpress cell cycle analysis program. Results from each treatment were reported as average cell number in each of nine fields, as well as the percentage of cells within each phase of the cell cycle. Each of these parameters was analyzed using GraphPad Prism, and, where appropriate, IC50 values have been reported.

In assay [2] the test system is phosphorylated tyrosine (p-Tyr) in A549 cells. The experiment in a line: Total cellular tyrosine phosphorylation after serum stimulation (immunofluorescent imaging). The format is cell-based, human. The settings on record: for Change in p-Tyr levels: A549, serum stimulated; for IC50: A549, 10 min 10% fetal bovine serum, apparent IC50 of an increase for 7e, of a decrease for sunitinib, read-out: IC50 for change in total tyrosine phosphorylation (p-Tyr) levels. On the procedure: Furthermore, compound 7e was analyzed for its effect on total cellular levels of phosphorylated tyrosine (p-Tyr) residues in human cancer cells. These studies were carried out using cells derived from lung adenocarcinoma (A549) and immunofluorescent imaging. The ability of the test compound 7e to affect acute serum stimulation of tyrosine phosphorylation was tested over a range of concentrations from less than 100 nM to 50 μM.
Cells were stimulated for 10 min with 10% fetal bovine serum. Phosphotyrosine levels were determined by indirect immunofluorescence followed by automated image acquisition and analysis.

The test system of assay [3] is Swiss 3t3 fibroblasts. The experiment in a line: Selectivity: growth inhibition in non-tumorigenic cell line. The settings on record: Mus musculus, 72 h, maximum 25 μM, read-out: IC50 Fibroblast Swiss 3t3. The format is cell-based, mice. The method, then:
(§1) This assessment of the growth inhibitory activity of the compounds was tested in quadruplicate at a maximum concentration of 25 μM, followed by 10 serially diluted concentrations.
A549, IEC-6, MCF-10A and 3t3 cells were harvested from 90-95% confluent cultures in 10 cm dishes, and diluted in growth media recommended by the suppliers as follows: A549 cells were cultured in RPMI-1640 medium supplemented with 5% fetal bovine serum (FBS). IEC-6 cells were obtained from ATCC and cultured in Dulbecco’s modified Eagle’s medium (DMEM) supplemented with 10% FBS and 0.1 unit/mL recombinant insulin. Swiss 3t3 cells were obtained from ATCC and cultured in DMEM supplemented with 10% FBS. […]
At the end of the treatment period, assay plates were allowed to cool to RT for 10 min prior to addition of 25 µL per well Promega CellTiterGlo reagent, followed by an additional 10 min incubation at RT. The resulting luminescence was quantitated using a Molecular Devices Spectramax Paradigm.Percent growth inhibition was calculated using equation (1). The potency of compounds was determined using the non-linear dose response algorithm (four-parameter logistic fit) with GraphPad Prism 5 software.

The test system of assay [4] is IEC-6, MCF-10A, Swiss 3t3 versus A-549. Briefly: Tumor cell selectivity, non-tumor cell lines versus NSCLC cells. The assay is classed as cell-based. As to conditions: for Mean tumor selectivity: mean IC50 in non-tumor cell lines versus NSCLC cells. The method, then: as §1
As indicated in Fig 7 and Table 4, compound 7e inhibited growth in both normal and tumor cell lines >50%.

Where [5] appears, read: A549, 24 h, read-out: IC50 for reductions in the total cell number.
Where [6] appears, read: A549, 48 h, read-out: IC50 for reductions in the total cell number.

For `O=C1Nc2ccc(Br)cc2C1=NN=C1C(=O)N(Cc2ccccc2)c2ccccc21` [Compound 7e, 1-Benzyl-3-((5-bromo-2-oxoindolin-3-ylidene)hydrazono)indolin-2-one], the Cell cycle effects entry in assay [1] is “decreased the percentage of cells in the G1 phase of the cell cycle with a corresponding increase in the S-phase; also recorded: decrease in the percentage of cells in the G1 phase of the cell cycle with a corresponding increase in the S-phase; also recorded: G1 decreased, S-phase increased”. The IC50 in assay [1] (A549, 24 h, read-out: IC50, % G1-Phase cells) is 6.26 µM; in assay [1] (setting [5]) it was 2.67 µM; in assay [1] (A549, 48 h, read-out: IC50, % G1-Phase cells) it was 5.16 µM; in assay [1] (setting [6]), 2.36 µM; in assay [2] (Homo sapiens, A549, 10 min), 3.8 µM; in assay [3], 2.56 µM. Further, the “Change in p-Tyr levels” value in assay [2] is recorded as “nearly two-fold”. Also, the Mean tumor selectivity in assay [4] turned out to be 1.7. The “Growth inhibition in both normal and tumor cell lines” value in assay [4] (up to 25 μM) is more than 50%.
As for `CCN(CC)CCNC(=O)c1c(C)[nH]c(/C=C2\C(=O)Nc3ccc(F)cc32)c1C` [Sunitinib, sunitinib, reference compound], the Cell cycle effects result in assay [1] is “G1 decreased and G2/M-phases increased”. Also, the IC50 worked out at 12.5 µM in assay [1] (setting [5]); 3.48 µM in assay [1] (setting [6]); 0.91 µM in assay [2]; 0.9 µM in assay [2] (Homo sapiens, A549, 10 min); 4.07 µM in assay [3]. Besides, the “Change in p-Tyr levels” value in assay [2] is “modest dose-dependent decrease”. Also, in assay [4], the Mean tumor selectivity came out at 1.4.

These data come from PMC5526551, “New hydrazonoindolin-2-ones: Synthesis, exploration of the possible anti-proliferative mechanism of action and encapsulation into PLGA microspheres” (PLoS ONE, 2017).
